Measurements as given in publication PMC4468940, “Glucose-tolerant β-glucosidase retrieved from a Kusaya gravy metagenome” (Frontiers in Microbiology, 2015).

These compounds were tested on T1, Ks5A7 (assay: released glucose, Amplex Red glucose oxidase assay). Details: McIlvaine buffer pH 5.5, 45°C.
T1 construct: full length, 452 aa, 52,509 Da (53,573 Da tagged), C-terminal 6xHis tag (pET29b, primer-encoded LE linker) kept; E. coli Rosetta (DE3); ~160 kDa by gel filtration; GH1; N-terminus from primer MMKFNENFVWG, C-terminus IEENGENL; silent NdeI site removal
Format: biochemical, metagenome (uncultured bacterium, Kusaya gravy)
Excerpt: released glucose, Amplex Red glucose oxidase assay on Ks5A7
For OC[C@H]1O[C@@H](O[C@H]2[C@H](O)[C@@H](O)[C@H](O[C@H]3[C@H](O)[C@@H](O)[C@H](O[C@H]4[C@H](O)[C@@H](O)C(O)O[C@@H]4CO)O[C@@H]3CO)O[C@@H]2CO)[C@H](O)[C@@H](O)[C@@H]1O (stereo partly drawn) [Cellotetraose], the Km was 160 ± 12 µM. OC[C@H]1O[C@@H](O[C@H]2[C@H](O)[C@@H](O)C(O)O[C@@H]2CO)[C@H](O)[C@@H](O)[C@@H]1O (stereo partly drawn) [Cellobiose] showed a Km of 358 ± 55 µM. OC[C@H]1O[C@@H](O[C@H]2[C@H](O)[C@@H](O)[C@H](O[C@H]3[C@H](O)[C@@H](O)[C@H](O[C@H]4[C@H](O)[C@@H](O)[C@H](O[C@H]5[C@H](O)[C@@H](O)C(O)O[C@@H]5CO)O[C@@H]4CO)O[C@@H]3CO)O[C@@H]2CO)[C@H](O)[C@@H](O)[C@@H]1O (stereo partly drawn) [Cellopentaose] was tested, and the Km was 132 ± 11 µM. With OC[C@H]1O[C@@H](O[C@H]2[C@H](O)[C@@H](O)[C@H](O[C@H]3[C@H](O)[C@@H](O)C(O)O[C@@H]3CO)O[C@@H]2CO)[C@H](O)[C@@H](O)[C@@H]1O (stereo partly drawn) [Cellotriose] the Km was 163 ± 16 µM.

These compounds were tested on T1, Ks5A7 (assay: p-nitrophenol release, […] nm, initial rates). Details: McIlvaine buffer pH 5.5, 45°C, no glucose added.
Format: biochemical, metagenome (uncultured bacterium, Kusaya gravy)
In the case of O=[N+]([O-])c1ccc(O[C@@H]2O[C@H](CO)[C@@H](O)[C@H](O)[C@H]2O)cc1 [pNPGlc], the Km is reported as 78 ± 2 µM. Compound C[C@H]1O[C@@H](Oc2ccc([N+](=O)[O-])cc2)[C@H](O)[C@@H](O)[C@H]1O [pNPFuc] has a Km of 152 ± 4 µM.
